This data set is described as follows: Hydrolysis stability of NRTOCl and NRCl oil-in-water emulsions and NRCl in water at 35° C. for 26 days. The format is physicochemical. The following applies: 35° C., 26 days; for times more stable than NR(Cl) in emulsion: canola oil-in-water emulsion with sodium caseinate. As for the experimental part: The emulsion was prepared using 480 mg of oil stock containing 15 wt. % NRTOCl in canola oil and an aqueous phase (14.52 g) of Na-caseinate (2 wt. %), KCl (0.3 wt. %), NaCl (0.1 wt. %), CaCl2 (0.2 wt. %) and NaN3 (0.01 wt. %).
The emulsion was-prepared using 480 mg of oil stock containing 15 wt. % NRTOCl in canola oil and 0.025 g of lecithin. The aqueous phase (14.5 g) contained Na-caseinate (2 wt. %), KC (0.3 wt. %), NaCl (0.1 wt. %), CaCl2 (0.2 wt. %) and NaN3 (0.01 wt. %).
The emulsion was-prepared using 480 mg of oil stock containing 15 wt. % NRTOCl in canola oil and an aqueous phase (14.52 g) of polysorbate 80 (Tween 80) (2 wt. %).
The emulsion was prepared using around 480 mg of canola oil in an aqueous phase (14.52 g) of NRCl (19 mg), Na-caseinate (2 wt. %), KCl (0.3 wt. %), NaCl (0.1 wt. %), CaCl2 (0.2 wt. %) and NaN3 (0.01 wt. %).
After each specific time of stability for NRTOCl and NRCl emulsions, 1.5 mL of each emulsion was centrifuged (14,000 rpm) for 20 minutes at room temperature.
Since NRTOCl is a very hydrophobic compound, to evaluate its stability in oil phase, an emulsion system was used to study the stability of NRTOCl as a function of time. For this purpose, a 15% w/w solution of NRTOCl in canola oil was used for making different emulsions with Na-caseinate, Tween 80 and lecithin as the emulsifiers (2 wt. %) at room temperature.
When Na-caseinate was used as an emulsifier, the aqueous phase must be a solution of NaCl (0.1 wt. %), CaCl2 (0.2 wt. %) and KCl (0.3 wt. %) because caseinate anion with minus charge and NRTO with positive charge immediately aggregated in DI water. The total oil phase in these emulsions were 3.2 wt. %, and the concentration of NRTOCl in total volume of each emulsion (15 mL) was 4.4 mM. In the emulsions that used Na-caseinate as an emulsifier, NaN3 (0.01 wt. %) was added to prevent the growth of bacteria. When the NRTOCl emulsion was made by 2 wt. % Na-caseinate, its average size and zeta potential in this emulsion (Cas emulsion) were 1020 nm and −14.4 mV respectively.
After making NRTOCl emulsions, a NRCl in canola oil-in-water emulsion was attempted as a control experiment using 3.2% canola oil. The aqueous phase was a solution of Na-caseinate (2 wt. %), NaCl (0.1 wt. %), CaCl2 (0.2 wt. %), KCl (0.3 wt. %) and NaN3 (0.01 wt. %). The concentration of NRCl in total volume (15 mL) of this emulsion was 4.4 mM. Moreover, 15 mL of NRCl solution in DI water was prepared with 4.4 mM concentration as the other control experiment. After preparing three NRTOCl emulsions and two control experiment samples, hydrolysis stability of each sample was studied at 35° C. for 26 days (FIG. 14). The rate of degradation was measured by determination of the released nicotinamide from each sample. […]

As to `CCCCCCCC/C=C\CCCCCCCC(=O)OC[C@H]1O[C@@H]([n+]2cccc(C(N)=O)c2)[C@H](OC(=O)CCCCCCC/C=C\CCCCCCCC)[C@@H]1OC(=O)CCCCCCC/C=C\CCCCCCCC.[Cl-]` [NRTOCl, nicotinamide riboside trioleates chloride], the “times more stable than NR(Cl) in emulsion” value is given as 213 times. Moreover, the “times more stable than NR(Cl) in emulsion” value (listed as NRTO) is “about 213 times”. For the same compound, the “remaining amount after 26 days in emulsion” value (canola oil-in-water emulsion, 4.4 mM) is 93.7%.

The values above are taken from US20240424010A1, “NICOTINAMIDE RIBOSIDE TRIOLEATES CHLORIDE, COMPOSITIONS CONTAINING THIS COMPOUND, AND METHODS OF MAKING AND USING THIS COMPOUND” (SOCIETE DES PRODUITS NESTLE S.A., priority 2021, published 2024).
